Results published in publication PMC4792962, “A unified mechanism for proteolysis and autocatalytic activation in the 20S proteasome” (Nature Communications, 2016).
Residue numbers refer to the chain shown, from its start.

How the values were obtained:
[1] = biological target: T1, yeast 20S proteasome core particle (yCP), β5 active site (ChT-L activity) (Saccharomyces cerevisiae, UniProt P23724+P30656, P30656:K108A); experiment: X-ray crystal structure; assay type: binding; details: propeptide expressed in trans, covalent
T1 construct: gene PRE2; native 20S core particle purified from yeast (α7β7β7α7, 28 subunits), untagged; β5 mature after autocatalytic propeptide removal; in 'pp trans' mutants the β5 propeptide is expressed separately; with Proteasome subunit beta type-1; Proteasome subunit beta type-2; Proteasome subunit beta type-3; Proteasome subunit beta type-4; Proteasome subunit beta type-7; Proteasome subunit alpha type-1; Proteasome subunit alpha type-2; Proteasome subunit alpha type-3; Proteasome subunit alpha type-4; Proteasome subunit alpha type-5; Proteasome subunit alpha type-6; Probable proteasome subunit alpha type-7
T1 sequence (P30656 76-287 K108A): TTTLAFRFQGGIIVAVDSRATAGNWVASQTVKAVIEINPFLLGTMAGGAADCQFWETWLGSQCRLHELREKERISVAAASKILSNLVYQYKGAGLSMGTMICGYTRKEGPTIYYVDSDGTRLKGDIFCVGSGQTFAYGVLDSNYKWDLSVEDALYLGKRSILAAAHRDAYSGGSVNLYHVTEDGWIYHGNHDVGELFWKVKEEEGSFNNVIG
T1 sequence (P23724 20-241): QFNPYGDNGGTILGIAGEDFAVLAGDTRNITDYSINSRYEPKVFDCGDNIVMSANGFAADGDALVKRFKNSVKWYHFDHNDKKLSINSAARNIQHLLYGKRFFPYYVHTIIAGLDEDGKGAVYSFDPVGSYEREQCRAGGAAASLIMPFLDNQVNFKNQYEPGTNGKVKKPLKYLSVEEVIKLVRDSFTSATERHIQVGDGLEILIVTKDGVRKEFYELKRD

[2] = biological target: T2, yeast 20S proteasome core particle (yCP), β5 active site (ChT-L activity) (Saccharomyces cerevisiae, UniProt P23724+P30656, P30656:D243N); experiment: X-ray crystal structure; assay type: binding; details: crystal soak; covalent (morpholine ring with Thr1)
T2 construct: gene PRE2; native 20S core particle purified from yeast (α7β7β7α7, 28 subunits), untagged; β5 mature after autocatalytic propeptide removal; in 'pp trans' mutants the β5 propeptide is expressed separately; with Proteasome subunit beta type-1; Proteasome subunit beta type-2; Proteasome subunit beta type-3; Proteasome subunit beta type-4; Proteasome subunit beta type-7; Proteasome subunit alpha type-1; Proteasome subunit alpha type-2; Proteasome subunit alpha type-3; Proteasome subunit alpha type-4; Proteasome subunit alpha type-5; Proteasome subunit alpha type-6; Probable proteasome subunit alpha type-7
T2 sequence (P30656 76-287 D243N): T1 sequence (P30656 76-287 K108A) with A33K, D168N
T2 sequence (P23724 20-241): T1 sequence (P23724 20-241)

[3] = biological target: T3, yeast 20S proteasome core particle (yCP), β5 active site (ChT-L activity) (Saccharomyces cerevisiae, UniProt P23724+P30656); experiment: fluorescence inhibition assay, Suc-LLVY-AMC; assay type: biochemical
T3 construct: gene PRE2; native 20S core particle purified from yeast (α7β7β7α7, 28 subunits), untagged; β5 mature after autocatalytic propeptide removal; in 'pp trans' mutants the β5 propeptide is expressed separately; with Proteasome subunit beta type-1; Proteasome subunit beta type-2; Proteasome subunit beta type-3; Proteasome subunit beta type-4; Proteasome subunit beta type-7; Proteasome subunit alpha type-1; Proteasome subunit alpha type-2; Proteasome subunit alpha type-3; Proteasome subunit alpha type-4; Proteasome subunit alpha type-5; Proteasome subunit alpha type-6; Probable proteasome subunit alpha type-7
T3 sequence (P30656 76-287): T1 sequence (P30656 76-287 K108A) with A33K
T3 sequence (P23724 20-241): T1 sequence (P23724 20-241)

[4] = biological target: T4, yeast 20S proteasome core particle (yCP), β5 active site (ChT-L activity) (Saccharomyces cerevisiae, UniProt P23724+P30656, P30656:T76S); experiment: fluorescence inhibition assay, Suc-LLVY-AMC; assay type: biochemical
T4 construct: gene PRE2; native 20S core particle purified from yeast (α7β7β7α7, 28 subunits), untagged; β5 mature after autocatalytic propeptide removal; in 'pp trans' mutants the β5 propeptide is expressed separately; with Proteasome subunit beta type-1; Proteasome subunit beta type-2; Proteasome subunit beta type-3; Proteasome subunit beta type-4; Proteasome subunit beta type-7; Proteasome subunit alpha type-1; Proteasome subunit alpha type-2; Proteasome subunit alpha type-3; Proteasome subunit alpha type-4; Proteasome subunit alpha type-5; Proteasome subunit alpha type-6; Probable proteasome subunit alpha type-7
T4 sequence (P30656 76-287 T76S): T1 sequence (P30656 76-287 K108A) with T1S, A33K
T4 sequence (P23724 20-241): T1 sequence (P23724 20-241)

SMILES | X-ray crystal structure [1] | X-ray crystal structure [2] | IC50 [3] [nM] | IC50 [4] [nM]
CC(C)C[C@H](NC(=O)[C@H](CCc1ccccc1)NC(=O)CN1CCOCC1)C(=O)N[C@@H](Cc1ccccc1)C(=O)N[C@@H](CC(C)C)C(=O)[C@@]1(C)CO1 [carfilzomib] | crystal structure of the β5-K33A pp trans mutant in complex with carfilzomib | Soaking the β5-D166N crystals with carfilzomib and MG132 resulted in covalent modification of Thr1 |  | 
CC(C)C[C@H](NC(=O)[C@H](Cc1ccccc1)NC(=O)c1cnccn1)B(O)O [bortezomib] |  |  | 174 ± 29 | 649 ± 176
